We go through 3 compounds from US20260345547A1, “USE OF DIHYDROQUERCETIN IN TREATING OCULAR SURFACE DISEASES” (HE UNIVERSITY SCHOOL OF CLINICAL MEDICINE, priority 2022, published 2026).

Data set [1] has as its system corneal neovascularization model in rabbits. Description: Corneal neovascularization after corneal alkali burn in rabbits. The class given is in vivo, New Zealand rabbits. To be noted: 50 μL twice daily, ocular, 14 days after treatment, compared to model group; for corneal neovascularization area: P<0.01. The text has this: […] 3-month-old healthy New Zealand rabbits, half male and half female, were randomly assigned to six groups, with each group containing six rabbits. The groups were designated as blank control group (N), model control group (M), positive drug group (LEV), low concentration dihydroquercetin group (E1), high concentration dihydroquercetin group (E2) and solvent control group (R). Identification was marked on the rabbits' ears and cage cards, which included details such as the experiment name, experiment number, group designation, administration dosage, and administration schedule.
In this experiment, the corneal neovascularization model in rabbits was established using a chemical injury method. The rabbits were generally anesthetized with an intravenous injection of 1% pentobarbital sodium administered via the marginal ear vein. […] A 6 mm diameter filter paper was soaked in a 1 mol/L NaOH solution for 1 minute. The soaked filter paper was then applied to the center of the cornea for 30 seconds, after which it was removed. The ocular surface and conjunctival sac were subsequently rinsed with physiological saline for 1 minute. Following the modeling procedure, levofloxacin was applied as eye drops to the modeled eye to prevent postoperative infection.
The route of administration was ocular, and treatment commenced the day before modeling. No drug was administered to the blank control group or model control group. In the positive drug group, 50 μL of levofloxacin was applied to the conjunctival sac. In the low concentration group, 50 μL of a 0.03% dihydroquercetin solution was applied, while in the high concentration group, 50 μL of a 0.3% dihydroquercetin solution was applied. All treatments were administered twice daily at 9:00 a.m. and 3:00 p.m.
Fourteen days after treatment, ocular surface inflammation and neovascularization were assessed in each experimental group. The area of neovascularization was imaged, recorded, and subsequently quantified. Data were analyzed statistically using GraphPad Prism 8.0 software.

The subject of data set [2] is mouse model of dry eye. Description: Sodium fluorescein staining of cornea (corneal epithelial damage) in dry eye mice. In kind it is in vivo, C57/BL6 mice. To be noted: day 14 of modeling. The text has this:
(§1) Out of 50 healthy 8-week-old female C57/BL6 mice, 30 were selected for the experiment. Five mice were randomly assigned to each group, resulting in a total of six groups: blank control group (N), model group (M), positive drug group (CsA), low concentration traditional Chinese medicine group (SL), medium concentration traditional Chinese medicine group (SM), and high concentration traditional Chinese medicine group (SH). During grouping, identification was marked on the mice's tails and cage cards, which included details such as the experiment name, experiment number, group designation, administration dosage, and administration schedule.
In this experiment, a mouse model of dry eye was established using an intelligent dry environment control system in combination with scopolamine injection. A two-step dehumidification method was used to control the humidity of the environment during the modeling process. […]
The corneal morphology of experimental mice in each group was observed before modeling and 14 days after modeling. […] The sodium fluorescein-stained corneas of the mice were then illuminated with cobalt blue light, observed, imaged and recorded with a slit lamp. […] Sodium fluorescein residues on the corneal surface was scored and recorded. The data were analyzed statistically using GraphPad Prism 8.0 software.

The subject of data set [3] is mouse model of dry eye. In words: Tear secretion amount (phenol red cotton thread) in dry eye mice. In kind it is in vivo, C57/BL6 mice. The following applies: 5 μL drops twice daily, ocular, day 14 of modeling, compared to model control group, P<0.001.
From the text: as §1
(§2) In this experiment, a mouse model of dry eye was established using an intelligent dry environment control system in combination with scopolamine injection. A two-step dehumidification method was used to control the humidity of the environment during the modeling process. Initially, a temperature-adjustable industrial dehumidifier was used to reduce the room humidity to 40%±5%. […]
The mice were restrained without anesthesia. […] The thread was then placed on a printable ruler, and the length of the red-stained portion was measured and recorded. The data were analyzed statistically using GraphPad Prism 8.0 software. […]

The test system of data set [4] is HCE cells (H2O2-induced oxidative damage). In words: MTS assay: anti-oxidative damage effect on HCE cells with H2O2-induced damage. The class given is cell-based, human. The method, then:
(§3) Human corneal epithelial cells were purchased from the American Type Culture Collection (ATCC). The cell medium used was high-sugar DMEM medium supplemented with 10% (V/V) fetal bovine serum, 100 U/mL penicillin, and 100 μg/mL gentamicin. The cells were cultured in an incubator containing 5% carbon dioxide at 37° C. Cells in the logarithmic growth phase were seeded into a 96-well plate at a density of 1.5×10^5 cells/mL, with 100 μL per well and 6 replicate wells per group. The cells were grouped into a normal cell group, a hydrogen peroxide model group, and intervention groups treated with dihydroquercetin at various concentrations. The assay was performed using an MTS kit (e.g., Promega), and absorbance was measured at 490 nm using a microplate reader.
(§4) Survival rate=survival rate of each group/survival rate of normal cell group×100%
Human corneal epithelial cells were purchased from the American Type Culture Collection (ATCC). The cell medium used was high-sugar DMEM medium supplemented with 10% (V/V) fetal bovine serum, 100 U/mL penicillin, and 100 μg/mL gentamicin. The cells were cultured in an incubator containing 5% carbon dioxide at 37° C. Cells in the logarithmic growth phase were seeded into a 96-well plate at a density of 1.5×10^5 cells/mL, with 100 μL per well and 6 replicate wells per group. After 24 h, the cells were treated with H2O2 or dihydroquercetin according to the experimental purpose. […] To measure the colorimetric results, the absorbance value of each well was read at the wavelength of 490 nm using an enzyme-linked immunosorbent assay reader. The results were recorded, and a cell growth curve was plotted with time as the abscissa and absorbance value as the ordinate.
The experiment included 8 groups: a normal control group, a H2O2 model group, and intervention groups treated with various concentrations of dihydroquercetin (0.1-200 μM)+H2O2. […] The survival rate of cells in each group was assessed by the MTS assay to evaluate the protective effect of dihydroquercetin against oxidative damage of HCE cells.
In general terms: Formazan colour is commonly taken as a measure of viable cells.

In data set [5] the test system is mouse model of dry eye. Description: Tear film breakup time in dry eye mice. In kind it is in vivo, C57/BL6 mice. To be noted: treatment groups (0.03% and 0.3%), ocular; day 14 of modeling; compared to model control group, P<0.05.
From the text: as §1, §2
The mice were restrained without anesthesia, and sodium fluorescein solution was instilled into their conjunctival sacs. […] The time until the appearance of a block spot due to tear film breakup was recorded. […] The data were analyzed statistically using GraphPad Prism 8.0 software. […]

The test system of the next data set is HCE cells. Description: MTS assay: proliferative and toxic effects of dihydroquercetin on HCE cells. In kind it is cell-based, human. To be noted: 24 h; for cell viability of HCE cells: compared to control group. The method, then:
as §3, §4
Human corneal epithelial cells were purchased from the American Type Culture Collection (ATCC). The cell medium used was high-sugar DMEM medium supplemented with 10% (V/V) fetal bovine serum, 100 U/mL penicillin, and 100 μg/mL gentamicin. The cells were cultured in an incubator containing 5% carbon dioxide at 37° C. Cells in the logarithmic growth phase were seeded into a 96-well plate at a density of 1.5×10^5 cells/mL, with 100 μL per well and 6 replicate wells per group. After 24 h, the cells were treated with H2O2 or dihydroquercetin according to the experimental purpose. For color development, 20 μL of MTS solution was added to each well, and the cells were incubated for another 2-4 h. To measure the colorimetric results, the absorbance value of each well was read at the wavelength of 490 nm using an enzyme-linked immunosorbent assay reader. The results were recorded, and a cell growth curve was plotted with time as the abscissa and absorbance value as the ordinate.
Various concentrations of dihydroquercetin (0.01-600 μM) were applied to HCE cells, and 6 replicate wells were set for each group to ensure the reliability and accuracy of the experimental data. The proliferative effect of the drug on the cells was then assessed.

Data set [6] relates to human corneal epithelial (HCE) cells. In words: MTS assay: survival rate of HCE cells treated with H2O2 (damage model). In kind it is cell-based. The following applies: 300 μM H2O2, 24 h, relative to normal cell group. The method, then:
as §3, with “reader. […]” for “reader.”
Human corneal epithelial cells were purchased from the American Type Culture Collection (ATCC). […] To measure the colorimetric results, the absorbance value of each well was read at the wavelength of 490 nm using an enzyme-linked immunosorbent assay reader. The results were recorded, and a cell growth curve was plotted with time as the abscissa and absorbance value as the ordinate.
HCE cells were subcultured and seeded at 1.5×10^5 cells/mL, with 100 μL per well. […] To measure the colorimetric results, the absorbance value of each well was read at the wavelength of 490 nm using an enzyme-linked immunosorbent assay reader. […]

Values joined by “and” are separate entries in the source; they are usually repeats but may differ in a detail not shown here. Identical values can stand only once.

`C[C@H]1COc2c(N3CCN(C)CC3)c(F)cc3c(=O)c(C(=O)O)cn1c23` [levofloxacin, reference compound]: in data set [1], the “new blood vessels (slit lamp morphology)” value is given as “fewer new blood vessels” and the corneal neovascularization area result is “smaller”.

In the case of `O=C1c2c(O)cc(O)cc2O[C@H](c2ccc(O)c(O)c2)[C@H]1O` [dihydroquercetin], in the data set with mouse model of dry eye [2] (compared to model control group), the “sodium fluorescein staining of cornea (morphology)” value is “significant reduction in staining”. Moreover, the “corneal epithelial damage score, sodium fluorescein staining” value with mouse model of dry eye [2] (treatment groups (0.03% and 0.3%), ocular, compared to model group, P<0.001) is “significant reduction in damage”. Also, the tear secretion result is “significantly increased” in the data set with mouse model of dry eye [3] (high concentration group (E2), 0.3%) and “significantly increased” in the data set with mouse model of dry eye [3] (low concentration group (E1), 0.03%). The “new blood vessels (slit lamp morphology)” value was “fewer new blood vessels” in data set [1] (high concentration, 0.3%) and “fewer new blood vessels” in data set [1] (low concentration, 0.03%). Besides, the corneal neovascularization area result is “smaller” in data set [1] (high concentration, 0.3%) and “smaller” in data set [1] (low concentration, 0.03%). Further, in data set [4] (300 μM H2O2, MTS assay), the “concentration offering protection against H2O2-induced oxidative stress damage in HCE cells” value lay within 25 to 200 µM. Besides, the “cell survival rate, dihydroquercetin + H2O2” value in data set [4] (25-200 μM with 300 μM H2O2, compared to H2O2 model group, P<0.01) was “higher”. Also, the “tear film breakup time” value with mouse model of dry eye [5] was “increased significantly”. The “cell viability of HCE cells” value with HCE cells (50 μM) is “significantly higher”; with HCE cells (100 μM), “significantly higher”; in the data set on HCE cells (200 μM), “significantly higher”; in the data set with HCE cells (600 μM), “significantly reduced”. Further, the “concentration that has a proliferation effect on HCE cells” value with HCE cells (MTS assay) is 25 to 200 µM and 50 to 200 µM. Also, the “concentration with toxic effect on HCE cells” value in the data set on HCE cells (MTS assay) came to 600 µM.

One may read the viability as a per cent measure of how many cells are alive, often set against a control. Higher therefore signals better survival. Regarding `OO` [H2O2, hydrogen peroxide, reference compound], in data set [4] (300 μM H2O2, compared to control group, P<0.001), the “cell survival rate, H2O2 model group” value is “lower”. In addition, the viability at 300 µM in data set [6] stood at 49%.
